Values after ≈ are worked out from the molar mass of the structure shown. Like-named read-outs stand apart in the source and are kept apart here.
Experiments:
[1] = test system: C. auris clinical strains; assay: organism not typed; format: cell-based, Candida auris; conditions: range, 78 strains from patients with COVID-19
[2] = test system: Candida spp. blood isolates; conditions: 2009–2018
Description: Ward of hospitalization at the time of the diagnosis, species identification and in vitro antifungal susceptibility profile (where available) were recorded. Identification of Candida isolates and susceptibility testing were performed as per hospital protocol. Annual incidence rates/100,000 inhabitants were calculated. Chi-square test for trend was used for evaluation of changes in species distribution.

[3] = test system: Candida sp. and other yeast isolates, planktonic; assay: MIC of catheter yeast isolates, planktonic form; format: cell-based; conditions: range; read-out: MIC
[4] = test system: sessile cells of yeast mono and dual-species biofilms; assay: MIC of catheter yeast isolates, mono and dual-species biofilms; format: cell-based; conditions: range
[5] = test system: Candida auris isolates; assay: microbe, parasite or virus in culture; format: cell-based
[6] = test system: Candida auris isolates; assay: Disc diffusion, Oxoid discs; format: cell-based
[7] = test system: environmental yeasts from a lagoon; assay: organism not typed; format: cell-based
[8] = test system: Exophiala phaeomuriformis; assay: MIC, CLSI M27-A3; format: cell-based; conditions: read-out: MIC values
Description: Materials & Methods: The aviation kerosone samples came from an aviation company in Porto Alegre, state of Rio Grande do Sul, Brazil. The fungi isolation was carried out using the modified ASTM D6974-09 Standard. In this procedure, 500 mL kerosene samples were filtered, in triplicate, under aseptic conditions, under vacuum, using a 0.22 μm membrane (Millipore). After filtering, the membranes were deposited in potato dextrose agar culture medium. The plates were incubated in an oven at 30 °C for seven days. After this period, the colonies were isolated in new culture media for purification of the isolates. Molecular identification was performed through the sequencing of ITS DNA regions. The profile of sensitivity to clinical antifungals was assessed following protocols M27-A3 of the Clinical and Laboratory Standards Institute (CLSI).

[9] = test system: C. albicans; assay: Candidemia Netherlands, MIC distributions against EUCAST ECOFF; format: cell-based, Candida albicans
[10] = test system: C. glabrata; assay: as above; format: cell-based, Candida glabrata
[11] = test system: F. verticillioides; assay: Etest susceptibility; format: cell-based, Fusarium verticillioides
[12] = test system: invasive C. glabrata strains; assay: YeastOne Sensititre colorimetric broth microdilution; format: cell-based, Candida glabrata; conditions: Nakaseomyces glabratus
Description: Material and Method: Thirty-six clinical isolates of invasive C. glabrata strains were analyzed in this study. Minimum inhibitory concentrations (MICs) were determined using colorimetric broth microdilution (YeastOneSensititre, Trek diagnostics). Genomic DNA was isolated using Qiagen DNA extraction Kit. The FKS1 and FKS2 gene fragment were amplified and PCR products were purified prior to sequencing. Double-strand sequencing of PCR products was performed using Sanger sequencing methodology. Sequences were analyzed with MEGA-6 software to identify specific SNP combination against wild-type sequences of C. glabrata.

[13] = test system: C. albicans; format: cell-based, Candida albicans
[14] = test system: C. parapsilosis; format: cell-based, Candida parapsilosis
[15] = test system: C. glabrata; format: cell-based, Candida glabrata
[16] = test system: C. tropicalis; format: cell-based, Candida tropicalis
[17] = test system: C. krusei; format: cell-based, Candida krusei
[18] = test system: Other species of Candida; format: cell-based, Candida spp.
[19] = test system: Aspergillus tubingensis; assay: EUCAST susceptibility; format: cell-based
Description: The fungus was identified as Aspergillus niger and liposomal amphotericine B was switched to anidulafungin pending susceptibility testing as the patient had pre-existing […] (eGFR CKD-EPI 40 mL/min/1.73 m²). […] Despite increasing the anidulafungin dosage to 200 mg daily and adequate voriconazol levels, serum galactomannan levels remained elevated (index 2.1 at discharge). […] Since no extracardiac sources were found and the patient did well clinically, they were discharched. Anidulafungin was switched to caspofungin to facilitate ongoing IV treatment in the outpatient setting. […] The patient died shortly after. Obduction was not performed.

**Q.** `Nc1[nH]c(=O)ncc1F` [5-flucytosine] was tested. Which MIC [1] did it give?
**A.** 0.06 to 0.12 µg/mL (≈ 0.465 to 0.93 µM)

**Q.** And the Resistance [2]?
**A.** No resistance

**Q.** Which results are given for `CC[C@H](C)C[C@H](C)CCCCCCCCC(=O)N[C@H]1C[C@@H](O)[C@@H](NCCN)NC(=O)[C@@H]2[C@@H](O)CCN2C(=O)[C@H]([C@H](O)CCN)NC(=O)[C@H]([C@H](O)[C@@H](O)c2ccc(O)cc2)NC(=O)[C@@H]2C[C@@H](O)CN2C(=O)[C@H]([C@@H](C)O)NC1=O` [caspofungin]?
**A.** MIC [1]: 0.06 to 1 µg/mL (≈ 0.0549 to 0.915 µM); MIC [3]: 0.06 to 1 µg/mL; MIC [4]: 0.5 to 16 µg/mL; categorised as resistant on MIC ([5]; CDC guidelines): 13.2%; MIC ([5]; Candidozyma auris, […], IQR given, read-out: median MIC): 0.12 µg/mL (≈ 0.11 µM); categorised as resistant on ZD [6]: none; median zone diameter (ZD) ([6]; 25 µg FLU and 5 µg CAS discs, […]): 23 mm; isolates classified as resistant-like ([7]; number of 71 yeasts, MIC at or above Candida breakpoint): 48; MIC ([7]; range, read-out: MIC of resistant-like isolates): 1 to 128 µg/mL; MIC [8]: > 8 µg/mL; isolates within the wildtype distribution range [9]: 98.9%; isolates within the wildtype distribution range [10]: 87.1%; minimum inhibitory concentration (MIC), in words [11]: high values; MIC ([12]; 36 clinical isolates, read-out: median (Min–Max) MIC): 0.06 µg/mL; MIC ([12]; isolate with FKS1 D632H): 0.25 µg/mL; MIC ([12]; isolate with FKS2 I661T): 0.12 µg/mL; I (intermediate) isolates, n (%) [13]: 0 (0%); R (resistant) isolates, n (%) [13]: 0 (0%); S (sensitive) isolates, n (%) [13]: 138 (100); I (intermediate) isolates, n (%) [14]: 0 (0%); R (resistant) isolates, n (%) [14]: 0 (0%); S (sensitive) isolates, n (%) [14]: 132 (100%); R (resistant) isolates, n (%) [15]: 3 (5.5%); S (sensitive) isolates, n (%) [15]: 44 (80%); I (intermediate) isolates, n (%) [16]: 0 (0%); R (resistant) isolates, n (%) [16]: 0 (0%); S (sensitive) isolates, n (%) [16]: 44 (100%); I (intermediate) isolates, n (%) [17]: 1 (33.3%); S (sensitive) isolates, n (%) [17]: 2 (66.7%); I (intermediate) isolates, n (%) [18]: 0 (0%); R (resistant) isolates, n (%) [18]: 0 (0%); S (sensitive) isolates, n (%) [18]: 18 (100%); MIC [19]: 60 µg/mL (≈ 54.9 µM)
